Reference: patent US8759385B2, “Composition comprising azole fungicide and water soluble metal salt” (Conopco Inc., priority 2009, dated 2014)

System: Trypsin
Assay: anti-trypsin effect (normalised trypsin activity)
Format: biochemical
Conditions: control (trypsin only) = 1.0

| Compound | Normalised activity (Climbazole 0.00391% alone) | Normalised activity (Climbazole 0.00781% alone) | Normalised activity (Climbazole 0.01563% alone) | Normalised activity (Climbazole 0.03125% alone) | Normalised activity (Climbazole 0.0625% alone) | Normalised activity (Climbazole 0.125% alone) | Normalised activity (Zinc gluconate 0.00156% alone) | Normalised activity (Zinc gluconate 0.003125% alone) | Normalised activity (Zinc gluconate 0.00625% alone) |
| --- | --- | --- | --- | --- | --- | --- | --- | --- | --- |
| CC(C)(C)C(=O)C(Oc1ccc(Cl)cc1)n1ccnc1 (stereo not drawn) [Climbazole] | 1.15 | 1.31 | 1.41 | 1.30 | 0.908 | 1.06 |  |  |  |
| Zinc gluconate |  |  |  |  |  |  | 1.03 | 0.957 | 0.8404 |
